Columns and labels:
[1] = test system: Pseudocercosporella herpotrichoides; assay: Activity against wheat eyespot in-vitro (PHI); type: cell-based; settings: 10 ppm, 10 days, 20° C., mycelial growth
Outline: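 Mycelial growth was scored after 10 days at 20 °C against untreated or diluent controls. The broth was half-strength potato dextrose, holding 10 ppm test compound (from acetone) and 5×10^4 fragments/ml of the eyespot fungus.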

[2] = test system: Botrytis cinerea; assay: Direct protectant activity against broad bean grey mould (BCB); type: in vivo; settings: direct protectant foliar spray, 600 ppm, 4 days
Outline: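 Protectant foliar test: lesion coverage assessed 4 days after inoculation and rated relative to untreated or diluent-sprayed plants. Compound applied at 600 ppm to cv The Sutton leaves 24 h before 10^6 conidia/ml suspension; incubation at 22 °C in high humidity.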

[3] = test system: Plasmopara viticola; assay: Antisporulant activity against vine downy mildew (PVA); type: in vivo; settings: vine leaves, antisporulant foliar spray, 600 ppm, 750 l/ha
Outline: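 Cabernet Sauvignon vines (~8 cm) inoculated on lower leaf surfaces with 5×10^4 zoosporangia/ml, held 24 h at 21° C high humidity then 24 h glasshouse. Infected leaves sprayed underside with 600 ppm compound in 1:1 water/acetone, 0.04% Tween 20, 750 l/ha; 96 h glasshouse, 24 h humidity. Sporulating leaf area rated versus control.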

[4] = test system: Venturia inaequalis; assay: Activity against apple scab in-vitro (VII); type: cell-based; settings: 10 ppm, 10 days, 20° C., mycelial growth
Outline: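 V. inaequalis propagules (5×10^4/ml, malt agar-grown) were exposed in half-strength PDB to 10 ppm final test compound delivered in acetone. Growth was scored after incubation for 10 days at 20° C, as a rating relative to untreated or diluent-sprayed controls.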

[5] = test system: Phytophthora infestans; type: in vivo; settings: tomato, direct protectant foliar spray
[6] = test system: Erysiphe graminis f.sp. hordei; assay: Direct protectant activity against barley powdery mildew (EGP); type: in vivo; settings: direct protectant foliar spray, 8 days
Outline: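 Rating reflects percentage of leaf area with sporulation compared with untreated or diluent-sprayed controls. Protectant spray was applied to single-leaf barley (cv Golden Promise) 24 h before conidia inoculation. Plants were kept at 18 °C and 40% RH throughout, with 8 days of disease development.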

[7] = test system: Pyricularia oryzae; type: in vivo; settings: rice seedlings, direct therapeutic foliar spray, 600 ppm, 4-5 days
[8] = test system: Alternaria solani; assay: Activity against tomato early blight (AS); type: in vivo; settings: Table VI; tomato seedlings, contact prophylactic foliar spray, 4 days
Outline: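 Plants were challenged with A. solani conidia (10^4 spores/ml) 24 h after a protective foliar spray of compound in 50:50 acetone/water plus 0.04% Tween 20. Held humid at 21° C for 4 days, then percent leaf area with lesions was scored as a rating relative to controls.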

[9] = test system: Leptosphaeria nodorum; assay: Activity against wheat leafspot (LN); type: in vivo; settings: direct therapeutic foliar spray, 600 ppm, 6-8 days
Outline: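 Therapeutic foliar spray: compound at 600 ppm applied to single-leaf wheat (cv Norman) 24 h after inoculation with 1.5×10^6 conidia/ml. Disease control scored after 6-8 days at 22° C and 70% humidity as lesions per leaf versus untreated or diluent-sprayed controls.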

[10] = test system: Erysiphe graminis f.sp. hordei; assay: Activity against barley powdery mildew, direct therapeutic (EGT); type: in vivo; settings: direct therapeutic foliar spray, 600 ppm, up to 7 days
Outline: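 A curative spray at 600 ppm was applied to single-leaf Golden Promise barley inoculated with powdery mildew conidia the previous day. After up to 7 days at 18 °C and 40% humidity, disease control was rated from percent leaf area sporulating relative to untreated or diluent-sprayed controls.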

[11] = test system: Rhizoctonia solani; assay: Activity against Rhizoctonia in-vitro (RSI); type: cell-based; settings: 10 ppm, 10 days, 20° C., mycelial growth
Outline: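 Compound at a final 10 ppm (acetone vehicle) in half-strength PDB, inoculated with 5×10^4 fragments/ml of shaken-culture R. solani mycelium. After incubation at 20° C for 10 days, growth scored as a rating versus untreated or diluent-treated controls.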

SMILES | disease control rating PHI [1] | disease control rating BCB [2] | disease control rating PVA [3] | disease control rating VII [4] | disease control rating PIP [5] | disease control rating EGP [6] | disease control rating PO [7] | disease control rating AS [8] | disease control rating LN [9] | disease control rating EGT [10] | disease control rating RSI [11]
CC(C)(C)C1CCC2(CC1)CC(N1CCCC3CCCCC31)CO2 (centres unmarked) [Compound 116] | 0 (less than 50% disease control) | 1 (about 50-80% disease control) | 0 (less than 50% disease control) | 2 (greater than 80% disease control) | 0 (less than 50% disease control) | 2 (greater than 80% disease control) | 0 (less than 50% disease control) | 0 (less than 50% disease control) | 0 (less than 50% disease control) | 2 (greater than 80% disease control) | 0 (less than 50% disease control)
CN(CCC1CCCCC1)C1COC2(CCC(C(C)(C)C)CC2)C1 (centres unmarked) [Compound 117] | 1 (about 50-80% disease control) | 0 (less than 50% disease control) | 0 (less than 50% disease control) | 1 (about 50-80% disease control) | 0 (less than 50% disease control) | 2 (greater than 80% disease control) | 0 (less than 50% disease control) | 2 (greater than 80% disease control) | 0 (less than 50% disease control) | 2 (greater than 80% disease control) | 1 (about 50-80% disease control)
CCN(CCC1CCCCC1)C1COC2(CCC(C(C)(C)C)CC2)C1 (centres unmarked) [Compound 118] | 1 (about 50-80% disease control) | 0 (less than 50% disease control) | 2 (greater than 80% disease control) | 1 (about 50-80% disease control) | 0 (less than 50% disease control) | 2 (greater than 80% disease control) | 0 (less than 50% disease control) | 0 (less than 50% disease control) | 0 (less than 50% disease control) | 2 (greater than 80% disease control) | 1 (about 50-80% disease control)
CCCN(CCC1CCCCC1)C1COC2(CCC(C(C)(C)C)CC2)C1 (centres unmarked) [Compound 119] | 1 (about 50-80% disease control) | 0 (less than 50% disease control) | 0 (less than 50% disease control) | 1 (about 50-80% disease control) | 0 (less than 50% disease control) | 2 (greater than 80% disease control) | 0 (less than 50% disease control) | 0 (less than 50% disease control) | 0 (less than 50% disease control) | 2 (greater than 80% disease control) | 0 (less than 50% disease control)
